These results are taken from patent US20210317141A1, “OXOPYRIDO[1,2-A]PYRIMIDINE COMPOUNDS FOR THE TREATMENT AND PROPHYLAXIS OF BACTERIAL INFECTION” (Hoffmann-La Roche Inc., priority 2018, published 2021).

Structures are written as SMILES. Values after ≈ are worked out from the molar mass of the structure shown.

Data set [1] in a line: Lyophilisation solubility assay (LYSA). The data set is classed as physicochemical. Conditions: aqueous buffer, thermodynamic from solid; 0.05 M phosphate buffer, pH 6.5; * = detection limit. Here is the method:
The solubility of compounds of present invention was assessed by LYSA assay. Samples were prepared in duplicate from 10 mM DMSO stock solutions (20 μL) diluted in 30 μL pure DMSO. After evaporation of DMSO with a centrifugal vacuum evaporator, the residue was dissolved in 0.05 M phosphate buffer (150 μL, pH 6.5), stirred for one hour and shook for two hours. After one night, the solution was filtered using a microtiter filter plate. Then the filtrate and its 1/10 dilution were analyzed by HPLC-UV. In addition, a four-point calibration curve was prepared from the 10 mM stock solutions and used for the solubility determination of the compounds.

For another data set, the system named is E. coli (BW25113). Briefly: 50% growth inhibitory concentration (IC50) determination assay, E. coli. The data set is classed as cell-based. Conditions: Escherichia coli, growth inhibition, Iso-Sensitest broth, OD 600 nm over 16 h, 35±2° C., read-out: IC50 (μM) E. coli K12 BW25113. Here is the method:
(§1) The in vitro antimicrobial activity of the compounds against E. coli (BW25113, obtained from Coli Genetic Stock Center, #7636) and K. pneumoniae (ATCC10031) was determined according to the following procedure:
(§2) The assay used a 10-points Iso-Sensitest broth medium to measure quantitatively the in vitro activity of the compounds against E. coli BW25113 and K. pneumoniae ATCC 10031.
(§3) Stock compounds in DMSO were serially two-fold diluted (range from 50 to 0.097 μM final concentration) in 384 wells microtiter plates and inoculated with 49 μL the bacterial suspension in Iso-Sensitest broth medium to have a final cell concentration of ˜5×10^5 CFU/mL in a final volume/well of 50 μL/well. Microtiter plates were incubated at 35±2° C.
(§4) Bacterial cell growth was determined with the measurement of optical density at k=600 nm each 20 minutes over a time course of 16 h.
(§5) Growth inhibition was calculated during the logarithmic growth of the bacterial cells with determination of the concentration inhibiting 50% (IC50) of the growth.

Data set [2] can be described thus: Cytotoxicity assay (HepG2, CellTiter-Blue). It is filed as cell-based. Conditions: human, HepG2 cells, 3 days treatment. As for the experimental part:
The cytotoxicity of compounds of present invention was assessed by HepG2 assay. HepG2 cells (ATCC HB-8065™) were seeded into 96-well plates (1.2×10^4 cells per well) and treated with compounds for 3 days, cell viability was measured at day 3 post compound treatment using the CellTiter-Blue® Cell Viability Assay (Promega, Cat. No. G8082). 20 μL of Cell titer blue buffer were added to each well of the cells, incubated for 3 hours at 37° C., and the fluorescence value was measured by a plate reader (Molecular Device SpectraMax M2). The CC50 value of each compound is plotted with GraphPad Prism using four parameter logistic equation.
In general terms: The colour change of resazurin is a common sign of viable cells or microbes.

In another data set the test system is E. coli (ATCC 25922). Briefly: Minimal Inhibitory Concentration (MIC) assay. It is filed as cell-based. Particulars: Escherichia coli, ATCC25922; CAMHB, 20 hours at 35° C.; read-out: MIC (μg/mL) E. coli ATCC 25922. As for the experimental part:
The in vitro potency of compounds to inhibit E. coli (ATCC 25922) growth was assessed by MIC (Minimal Inhibitory Concentration) assay. Samples were prepared from 10 mM DMSO stock solutions. After serial 2-fold dilution in DMSO in a master plate (Greiner, Cat No: 651201), 180 μL sterile distilled water was added to 20 μL each aliquot of the samples. Then […], diluted compounds were transferred into a new assay plate (Costar, 3599).
The growth medium […] Mueller Hinton Broth (CAMHB) was prepared by adding the 20 mg per liter CaCl2) and 20 mg per liter MgCl2 into the MHB medium (Jianglai Company, sterilized).
Vials of each of the test microorganisms were maintained frozen in the vapor phase of a liquid nitrogen freezer. Took out the bacteria E. coli ATCC 25922 (KWIKSTIK, 0335K) from liquid nitrogen freezer, thawed it in room temperature, and diluted the bacterial in the CAMHB medium to achieve a final inoculum of 5×10^5 CFU/mL. 90 μL CAMHB with bacteria was dispensed to the assay plate and pipetted 5 times.
Then the assay plates were incubated for 20 hours at 35° C. in ambient air. Following incubation, the MIC (μg/mL), the lowest concentration of drug that inhibits visible growth of the microorganism was read and recorded throw the microscope.

For data set [3], the system named is K. pneumoniae (ATCC10031). The data set is described as follows: 50% growth inhibitory concentration (IC50) determination assay, K. pneumoniae. Particulars: Klebsiella pneumoniae, growth inhibition, Iso-Sensitest broth, OD 600 nm over 16 h, * = detection limit. It is filed as cell-based. Here is the method: as §1, §2, §3, §4, §5

By thermodynamic solubility is commonly meant solubility found after equilibrating the solid with the medium. For orientation: IC50 means the concentration needed to halve the response being measured. In general, CC50 refers to the concentration giving 50% cytotoxicity. High values mean better tolerance by the cells, low ones harm at low concentration.

In data set [1], `CNc1cc(F)c(F)c2c1[nH]c1ncc(-c3ccc4ncc(C(=O)O)c(=O)n4c3)c(N(C)C)c12` [Example 1.01, 7-[4-(Dimethylamino)-5,6-difluoro-8-(methylamino)-9H-pyrido[2,3-b]indol-3-yl]-4-oxo-pyrido[1,2-a]pyrimidine-3-carboxylic Acid] had a solubility (thermodynamic) of 30 µg/mL (≈ 64.6 µM). Also, the IC50 in the data set on E. coli (BW25113) stood at 0.906 µM. The CC50 at 3 days in data set [2] was 45900 nM. For the same molecule, the MIC in the data set on E. coli (ATCC 25922) is 0.0183 µg/mL (≈ 0.0394 µM).

Consider `CNc1cc(F)cc2c1[nH]c1ncc(-c3cc(C)c4ncc(C(=O)O)c(=O)n4c3)c(N(C)C)c12` [Example 1.05, 7-[4-(Dimethylamino)-6-fliioro-8-(methylamino)-9H-pyrido[2,3-b]indol-3-yl]-9-methyl-4-oxo-pyrido[1,2-a]pyrimidine-3-carboxylic acid], for which the IC50 is 0.221 µM in data set [3] and 2.06 µM in the data set with E. coli (BW25113). In data set [2], this molecule displayed a cytotoxic concentration (CC50) at 3 days of 34000 nM. For the same molecule, in the data set with E. coli (ATCC 25922), the MIC was determined as 0.576 µg/mL (≈ 1.25 µM).

On to `CNc1cc(F)c(F)c2c1[nH]c1ncc(-c3ccc4ncc(C(=O)O)c(=O)n4c3)c(N(C)CC(F)(F)F)c12` [Example 1.09, 7-(5,6-Difluoro-4-(methyl(2,2,2-trifluoroethyl)amino)-8-(methylamino)-9H-pyrido[2,3-b]indol-3-yl)-4-oxo-4H-pyrido[1,2-a]pyrimidine-3-carboxylic acid], for which the IC50 in data set [3] came to 0.284 µM; with E. coli (BW25113), 2.57 µM. In addition, in data set [2], it took 33400 nM to reach half-maximal cytotoxicity (CC50 at 3 days). Besides, in the data set with E. coli (ATCC 25922), the MIC stood at 0.808 µg/mL (≈ 1.52 µM).

For the molecule `CNc1c(F)c(F)cc2c1[nH]c1ncc(-c3ccc4ncc(C(=O)O)c(=O)n4c3)c(N(C)C)c12` [Example 1.12, 7-(4-(Dimethylamino)-6,7-difluoro-8-(methylamino)-9H-pyrido[2,3-b]indol-3-yl)-4-oxo-4H-pyrido[1,2-a]pyrimidine-3-carboxylic], the IC50 in data set [3] was not above 0.098 µM; with E. coli (BW25113), 0.442 µM. Also, the CC50 at 3 days in data set [2] is 29900 nM. Further, the MIC with E. coli (ATCC 25922) was found to be 0.0212 µg/mL (≈ 0.0456 µM).

As to `CNc1c(F)cc(F)c2c1[nH]c1ncc(-c3ccc4ncc(C(=O)O)c(=O)n4c3)c(N(C)C)c12` [Example 1.17, 7-(4-(Dimethylamino)-5,7-difluoro-8-(methylamino)-9H-pyrido[2,3-b]indol-3-yl)-4-oxo-4H-pyrido[1,2-a]pyrimidine-3-carboxylic acid], the values for the half-maximal inhibitory concentration (IC50) (in data set [3]; with E. coli (BW25113)) were not above 0.098 µM and 0.497 µM, respectively. The thermodynamic solubility in data set [1] came to 60 µg/mL (≈ 129 µM). The MIC with E. coli (ATCC 25922) is 0.0847 µg/mL (≈ 0.182 µM).

Consider `CNc1cc(F)c(F)c2c1[nH]c1ncc(-c3ccc4ncc(C(=O)O)c(=O)n4c3)c(N3CCC(F)(CN(C)C)C3)c12` (stereo not shown) [Example 1.18, 7-(4-(3-((Dimethylamino)methyl)-3-fluoropyrrolidin-1-yl)-5,6-difluoro-8-(methylamino)-9H-pyrido[2,3-b]indol-3-yl)-4-oxo-4H-pyrido[1,2-a]pyrimidine-3-carboxylic acid], for which, in data set [1], the solubility (thermodynamic) came out at 200 µg/mL (≈ 354 µM). Also, the CC50 at 3 days in data set [2] is more than 100000 nM. Also, the MIC with E. coli (ATCC 25922) came to 0.398 µg/mL (≈ 0.704 µM).

Consider `CNc1cc(F)cc2c1[nH]c1ncc(-c3ccc4ncc(C(=O)O)c(=O)n4c3)c(N3CCC(CN(C)C4CC4)C3)c12` (stereo not shown) [Example 1.21, 7-(4-(3-((cyclopropyl(methyl)amino)methyl)pyrrolidin-1-yl)-6-fluoro-8-(methylamino)-9H-pyrido[2,3-b]indol-3-yl)-4-oxo-4H-pyrido[1,2-a]pyrimidine-3-carboxylic acid], for which the IC50 came to 0.155 µM in data set [3] and 4.78 µM in the data set on E. coli (BW25113). Also, the solubility (thermodynamic) in data set [1] turned out to be 230 µg/mL (≈ 414 µM). In the data set with E. coli (ATCC 25922), the MIC is 0.392 µg/mL (≈ 0.706 µM).

`CNc1c(F)c(F)cc2c1[nH]c1ncc(-c3ccc4ncc(C(=O)O)c(=O)n4c3)c(N3CCC[C@H]3CN(C)C)c12` [Example 1.26, (S)-7-(4-(2-((Dimethylamino)methyl)pyrrolidin-1-yl)-6,7-difluoro-8-(methylamino)-9H-pyrido[2,3-b]indol-3-yl)-4-oxo-4H-pyrido[1,2-a]pyrimidine-3-carboxylic acid] gave a solubility (thermodynamic) in data set [1] of more than 770 µg/mL. Besides, the 50% cytotoxic concentration (CC50) at 3 days in data set [2] was more than 100000 nM.

On to `CCNc1cc(F)cc2c1[nH]c1ncc(-c3ccn4c(=O)c(C(=O)O)cnc4c3)c(-n3ccc(C(F)(F)F)n3)c12` [Example 1.31, 8-[8-(Ethylamino)-6-fluoro-4-[3-(trifluoromethyl)pyrazol-1-yl]-9H-pyrido[2,3-b]indol-3-yl]-4-oxo-pyrido[1,2-a]pyrimidine-3-carboxylic acid], for which it took 30800 nM to reach half-maximal cytotoxicity in data set [2] (CC50 at 3 days). This lies in the double-digit micromolar range.

The molecule `CNc1cc(F)cc2c1[nH]c1ncc(-c3ccc4ncc(C(=O)O)c(=O)n4c3)c(C#N)c12` [Example 1.34, 7-[4-Cyano-6-fluoro-8-(methylamino)-9H-pyrido[2,3-b]indol-3-yl]-4-oxo-pyrido[1,2-a]pyrimidine-3-carboxylic acid] yielded a CC50 at 3 days in data set [2] of more than 100000 nM. Further, in the data set on E. coli (ATCC 25922), the MIC turned out to be 0.364 µg/mL (≈ 0.85 µM).

With `CNc1cc(F)c(F)c2c1[nH]c1ncc(-c3cc(CN4CCOCC4)c4ncc(C(=O)O)c(=O)n4c3)c(N(C)C)c12` [Example 2.01, 7-[4-(Dimethylamino)-5,6-difluoro-8-(methylamino)-9H-pyrido[2,3-b]indol-3-yl]-9-(morpholinomethyl)-4-oxo-pyrido[1,2-a]pyrimidine-3-carboxylic Acid], the values for the IC50 (in data set [3]; in the data set on E. coli (BW25113)) were not above 0.098 µM and 0.523 µM, respectively. In data set [1], this molecule returned a thermodynamic solubility of 36 µg/mL (≈ 63.9 µM). In addition, in the data set on E. coli (ATCC 25922), the MIC stood at 0.0223 µg/mL (≈ 0.0396 µM).

For the molecule `CNc1cc(F)c(F)c2c1[nH]c1ncc(-c3cc(CN(C)CCOC)c4ncc(C(=O)O)c(=O)n4c3)c(N(C)C)c12` [Example 2.02, 7-[4-(Dimethylamino)-5,6-difluoro-8-(methylamino)-9H-pyrido[2,3-b]indol-3-yl]-9-[[2-methoxyethyl(methyl)amino]methyl]-4-oxo-pyrido[1,2-a]pyrimidine-3-carboxylic acid], the results for the concentration for half-maximal inhibition (IC50) (in data set [3]; in the data set with E. coli (BW25113)) were not above 0.098 µM and 0.738 µM, respectively. Besides, the thermodynamic solubility in data set [1] came to 255 µg/mL (≈ 451 µM). Besides, the MIC in the data set on E. coli (ATCC 25922) is 0.0996 µg/mL (≈ 0.176 µM).

As for `CNc1cc(F)c(F)c2c1[nH]c1ncc(-c3cc(CN4CCCC4)c4ncc(C(=O)O)c(=O)n4c3)c(N(C)C)c12` [Example 2.03, 7-[4-(Dimethylamino)-5,6-difluoro-8-(methylamino)-9H-pyrido[2,3-b]indol-3-yl]-4-oxo-9-(pyrrolidin-1-ylmethyl)pyrido[1,2-a]pyrimidine-3-carboxylic acid], the IC50 in data set [3] is not above 0.098 µM; in the data set with E. coli (BW25113) it was 0.748 µM. The thermodynamic solubility in data set [1] came to 51 µg/mL (≈ 93.1 µM). The MIC with E. coli (ATCC 25922) turned out to be 0.194 µg/mL (≈ 0.354 µM).

`CNc1cc(F)c(F)c2c1[nH]c1ncc(-c3cc(CN4CCOCC4)c4ncc(C(=O)O)c(=O)n4c3)c(N3CCCC3)c12` [Example 2.04, 7-[5,6-Difluoro-8-(methylamino)-4-pyrrolidin-1-yl-9H-pyrido[2,3-b]indol-3-yl]-9-(morpholinomethyl)-4-oxo-pyrido[1,2-a]pyrimidine-3-carboxylic acid]: the IC50 in data set [3] amounted to 0.22 µM; with E. coli (BW25113), 1.21 µM. Besides, the thermodynamic solubility in data set [1] was found to be 91 µg/mL (≈ 154 µM). Also, the MIC with E. coli (ATCC 25922) stood at 0.0432 µg/mL (≈ 0.0733 µM).

With `CNc1cc(F)cc2c1[nH]c1ncc(-c3ccc4ncc(C(=O)O)c(=O)n4c3)c(N3CCC(F)(F)C3)c12` [Example 2.05, 7-(4-(3,3-Difluoropyrrolidin-1-yl)-6-fluoro-8-(methylamino)-9H-pyrido[2,3-b]indol-3-yl)-4-oxo-4H-pyrido[1,2-a]pyrimidine-3-carboxylic acid], in data set [2], the CC50 at 3 days was found to be 31800 nM. This lies in the double-digit micromolar range.
